Tests used:
Type in all cases: cell-based
[1] = system: spring wheat Pavon 79 isolated microspores; test: AGP in isolated microspore culture, liquid medium versus filter paper, co-cultured with ovaries; details: for Total # Embryos/Plate: MMS4, with ovaries
Description: […] […] The results are similar for liquid and filter paper at the 3 compared concentrations, and 10 mg/liter of AGP gave the best response.

[2] = system: microspores of spring wheat genotypes Chris and Pavon 79; test: AGP effect on embryo development from microspores, 0.8 ml drop on solid MMS4 with 3-4 ovaries; details: for avg. # embryos: genotype Chris, 5 reps; for # embryos: genotype Pavon 79, 3 reps
Description: The effect of AGP on microspore embryogenesis in the presence of ovary co-culture was assessed using Chris and Pavon 79 wheat genotypes. Media comprising 5 mg/liter and 10 mg/liter of AGP were compared with a control medium, on microspore embryogenesis in the presence of ovary co-culture. The results in Table 9 indicate that overall response of Chris to AGP is higher than the response of Pavon 79.

[3] = system: spring wheat Pavon 79 microspores; test: AGP concentrations in microspore culture in MMS4 liquid media; details: for # at Day 12 Alive / # at Day 12 Dead / # at Day 12 Dividing / # at Day 12 ELS / # at Day 12 Multicellular / # at Day 12 Total Developing / Day 50 # of embryos: 4 rep average
Description: In an experiment with Pavon 79, concentrations of 0, 10, 25, 50, 100, 500 and 1000 mg/L were used in microspore culture with 4 ovaries around a drop of liquid medium with microspores on top of solidified medium. […] However, higher concentrations can also be used. […] It was observed that 10 to 14 days in induction medium with AGP may be maximal as it appears that regeneration may be reduced with longer periods on medium with AGP.

arabinogalactan protein [AGP]
embryo response in liquid and on filter paper ([1]; 10 mg/liter of AGP compared with 0 and 5 mg/liter): best response
Total # Embryos/Plate ([1]; AGP 1 mg/L, Liquid): 2130
Total # Embryos/Plate ([1]; AGP 5 mg/L, Filter): 3080
Total # Embryos/Plate ([1]; AGP 5 mg/L, Liquid): 3393
Total # Embryos/Plate ([1]; AGP 10 mg/L, Filter): 4528
Total # Embryos/Plate ([1]; AGP 10 mg/L, Liquid): 4250
avg. # embryos ([2]; AGP 5 mg/L): 5618
# embryos ([2]; AGP 5 mg/L): 4155
avg. # embryos ([2]; AGP 10 mg/L): 9836
# embryos ([2]; AGP 10 mg/L): 4681
# at Day 12 Alive ([3]; AGP 10 mg/L): 69.3
# at Day 12 Dead ([3]; AGP 10 mg/L): 58.9
# at Day 12 Dividing ([3]; AGP 10 mg/L): 23.9
# at Day 12 ELS ([3]; AGP 10 mg/L): 8.7
# at Day 12 Multicellular ([3]; AGP 10 mg/L): 33.8
# at Day 12 Total Developing ([3]; AGP 10 mg/L): 66.4
Day 50 # of embryos ([3]; AGP 10 mg/L): 4493
# at Day 12 Alive ([3]; AGP 25 mg/L): 66.6
# at Day 12 Dead ([3]; AGP 25 mg/L): 69.3
# at Day 12 Dividing ([3]; AGP 25 mg/L): 13.6
# at Day 12 ELS ([3]; AGP 25 mg/L): 10.3
# at Day 12 Multicellular ([3]; AGP 25 mg/L): 38
# at Day 12 Total Developing ([3]; AGP 25 mg/L): 61.9
Day 50 # of embryos ([3]; AGP 25 mg/L): 3538
# at Day 12 Alive ([3]; AGP 50 mg/L): 47.9
# at Day 12 Dead ([3]; AGP 50 mg/L): 75
# at Day 12 Dividing ([3]; AGP 50 mg/L): 10.7
# at Day 12 ELS ([3]; AGP 50 mg/L): 5
# at Day 12 Multicellular ([3]; AGP 50 mg/L): 13.2
# at Day 12 Total Developing ([3]; AGP 50 mg/L): 28.9
Day 50 # of embryos ([3]; AGP 50 mg/L): 471
# at Day 12 Alive ([3]; AGP 100 mg/L): 66.4
# at Day 12 Dead ([3]; AGP 100 mg/L): 61
# at Day 12 Dividing ([3]; AGP 100 mg/L): 17.3
# at Day 12 ELS ([3]; AGP 100 mg/L): 2.9
# at Day 12 Multicellular ([3]; AGP 100 mg/L): 32.2
# at Day 12 Total Developing ([3]; AGP 100 mg/L): 52.4
Day 50 # of embryos ([3]; AGP 100 mg/L): 3709
# at Day 12 Alive ([3]; AGP 500 mg/L): 57.3
# at Day 12 Dead ([3]; AGP 500 mg/L): 61
# at Day 12 Dividing ([3]; AGP 500 mg/L): 19.4
# at Day 12 ELS ([3]; AGP 500 mg/L): 4.5
# at Day 12 Multicellular ([3]; AGP 500 mg/L): 27.7
# at Day 12 Total Developing ([3]; AGP 500 mg/L): 51.6
Day 50 # of embryos ([3]; AGP 500 mg/L): 3267
# at Day 12 Alive ([3]; AGP 1000 mg/L): 69.3
# at Day 12 Dead ([3]; AGP 1000 mg/L): 56
# at Day 12 Dividing ([3]; AGP 1000 mg/L): 14.8
# at Day 12 ELS ([3]; AGP 1000 mg/L): 7
# at Day 12 Multicellular ([3]; AGP 1000 mg/L): 28.5
# at Day 12 Total Developing ([3]; AGP 1000 mg/L): 50.3
Day 50 # of embryos ([3]; AGP 1000 mg/L): 1821
microspore viability at day 12 versus control with no AGP ([3]; AGP 10-1000 mg/L, Pavon 79): not significantly different from the control value
embryogenesis across AGP concentrations ([3]; AGP concentrations of 10 or 25 mg/liter): optimal embryogenesis
total number of developing structures ([3]; in the presence of AGP, day 12, Pavon 79): improved

— US6812028B1, “Embryogenesis and plant regeneration from microspores” (University of Guelph, priority 1999, dated 2004)
